The text below walks through data of patent US7531545B2, “2-amino-3,4-dihydro-pyrido[3,4-d]pyrimidine derivatives useful as inhibitors of β-secretase (BACE)” (Janssen Pharmaceutica, N.V., priority 2005, dated 2009).

The test deals with human BACE-1 (Homo sapiens, UniProt P56817). Nature of the test: CEREP BACE Inhibition Assay. As to conditions: recombinant enzyme; for inhibition at 1 µM / inhibition at 0.3 µM: percent inhibition of the control activity; for inhibition at 1 µM: read-out: % Inhibition @ 1.0 μM; for IC50: read-out: IC50. The test is classed as biochemical. The method, then:
More specifically the assay, run at 50 μL in a 96 well plate, evaluated the effect of test compound on the activity of the human BACE-1 quantified by measuring the formation of Mca-S-E-V-N-L-NH2 from […], using a recombinant enzyme. The test compound, reference compound or water (control) were added to a buffer containing 0.09 M sodium acetate (pH 4.5) and 0.25 μg BACE-1. Compound interference with the fluorimetric detection method due to autofluorescence was then checked by measurements at the wavelengths defined to evaluate the enzyme activity. […] For control basal measurement, the substrate was omitted from the reaction mixture. […] The standard inhibitory reference compound was OM99-2, which was tested in each experiment at several concentrations to obtain an inhibition curve from which its IC50 value was calculated.

human BACE-1, sequence (P56817 46-501): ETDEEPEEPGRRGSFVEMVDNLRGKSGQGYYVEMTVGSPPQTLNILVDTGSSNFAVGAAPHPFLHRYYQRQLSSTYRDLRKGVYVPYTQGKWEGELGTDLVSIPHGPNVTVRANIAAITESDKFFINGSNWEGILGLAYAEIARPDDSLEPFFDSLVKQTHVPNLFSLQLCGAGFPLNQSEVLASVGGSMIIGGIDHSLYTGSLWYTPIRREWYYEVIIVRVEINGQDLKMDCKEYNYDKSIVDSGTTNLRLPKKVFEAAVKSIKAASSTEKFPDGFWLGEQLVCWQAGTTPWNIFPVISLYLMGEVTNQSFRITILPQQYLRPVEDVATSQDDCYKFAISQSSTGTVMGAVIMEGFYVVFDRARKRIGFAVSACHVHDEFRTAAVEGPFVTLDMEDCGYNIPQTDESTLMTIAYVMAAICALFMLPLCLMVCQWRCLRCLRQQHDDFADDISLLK

Turning to `COCC(=O)NC1=Nc2cnc(Oc3ccccc3)cc2CN1C(Cn1cc(C(C)(C)C)nn1)C1CCCCC1` (stereo in doubt) [Compound 247, N-{3-[2-(4-tert-Butyl-[1,2,3]triazol-1-yl)-1-(S)-cyclohexyl-ethyl]-6-phenoxy-3,4-dihydro-pyrido[3,4-d]pyrimidin-2-yl}-2-methoxy-acetamide], the inhibition at 1 µM stood at 3%.
For the compound `COC(=O)[C@@H](COCc1ccccc1)NC(=O)CC[C@@H](C(C)C)N1Cc2cc(Oc3ccccc3)ncc2N=C1N` [Compound 53], the inhibition at 0.3 µM amounted to 95% and the IC50 was found to be 140 nM.
For `CC(C)[C@H](CCC(=O)N[C@H](COCc1ccccc1)C(=O)O)N1Cc2cc(Oc3ccccc3)ncc2N=C1N` [Compound 54], in that order: 97% and 170 nM.
For `COC(=O)[C@H](COCc1ccccc1)N(C)C(=O)CC[C@@H](C1CCOCC1)N1Cc2cc(Oc3ccccc3)ncc2N=C1N` [Compound 56], the inhibition at 0.3 µM came out at 93% and the IC50 stood at 75 nM.
For `CN(C(=O)CC[C@@H](C1CCOCC1)N1Cc2cc(Oc3ccccc3)ncc2N=C1N)[C@@H](COCc1ccccc1)C(=O)O` [Compound 58] the same measures were 57% and 270 nM.
For `CN(C(=O)CC[C@@H](C1CCOCC1)N1Cc2cc(Oc3ccccc3)ncc2N=C1N)[C@H](COC(C)(C)C)C(=O)O` [Compound 60], in that order: 91% and 100 nM.
For `COC(=O)[C@H](COC(C)(C)C)NC(=O)CC[C@@H](C1CCCCC1)N1Cc2cc(Oc3ccccc3)ncc2N=C1N` [Compound 61] the same measures were 81% and 240 nM.
On to `CC(C)(C)OC[C@H](NC(=O)CC[C@@H](C1CCCCC1)N1Cc2cc(Oc3ccccc3)ncc2N=C1N)C(=O)O` [Compound 62], for which the inhibition at 0.3 µM was 65% and the IC50 worked out at 250 nM.
For `COC(=O)[C@@H](COC(C)(C)C)NC(=O)CC[C@@H](C1CCCCC1)N1Cc2cc(Oc3ccccc3)ncc2N=C1N` [Compound 63, 2-[4-(2-Amino-6-phenoxy-4H-pyrido[3,4-d]pyrimidin-3-yl)-4-(S)-cyclohexyl-butyryl-(R)-amino]-3-tert-butoxy-propionic acid methyl ester] the same measures were 94% and 190 nM.
As for `COC(=O)[C@H](COC(C)(C)C)N(C)C(=O)CC[C@@H](C1CCCCC1)N1Cc2cc(Oc3ccccc3)ncc2N=C1N` [Compound 65], the inhibition at 0.3 µM turned out to be 91% and the IC50 was found to be 110 nM.
For `CN(C(=O)CC[C@@H](C1CCCCC1)N1Cc2cc(Oc3ccccc3)ncc2N=C1N)[C@@H](COC(C)(C)C)C(=O)O` [Compound 66] the same measures were 96% and 260 nM.
In the case of `COC(=O)[C@H](COC(C)(C)C)NC(=O)CC[C@@H](C(C)C)N1Cc2cc(Oc3ccccc3)ncc2N=C1N` [Compound 69], the inhibition at 0.3 µM came to 57% and the IC50 was 340 nM.
With `CC(C)[C@H](CCC(=O)N[C@@H](COC(C)(C)C)C(=O)O)N1Cc2cc(Oc3ccccc3)ncc2N=C1N` [Compound 70], the inhibition at 0.3 µM was found to be 66% and the IC50 was found to be 260 nM.
As for `CC(C)(C)OC(=O)CC[C@@H](C1CCCCC1)N1Cc2cc(Oc3ccccc3)ncc2N=C1N` [Compound 75], the inhibition at 1 µM is 90% and the IC50 was 240 nM.
As for `NC1=Nc2cnc(Oc3ccccc3)cc2CN1[C@@H](CCC(=O)N(Cc1nnn[nH]1)C1CCCCC1)C1CCCCC1` [Compound 77, 4-(2-Amino-6-phenoxy-4H-pyrido[3,4-d]pyrimidin-3-yl)-4-(S)—N-dicyclohexyl-N-(1H-tetrazol-5-ylmethyl)-butyramide], the inhibition at 0.3 µM was found to be 78% and the IC50 worked out at 330 nM.
In the case of `NC1=Nc2cnc(Oc3ccccc3)cc2CN1[C@@H](CCC(=O)N(Cc1ncc[nH]1)C1CCCCC1)C1CCCCC1` [Compound 78, 4-(2-Amino-6-phenoxy-4H-pyrido[3,4-d]pyrimidin-3-yl)-4-(S),N-dicyclohexyl-N-(1H-imidazol-2-ylmethyl)-butyramide], the inhibition at 0.3 µM came out at 91% and the IC50 was 190 nM.
For `NC1=Nc2cnc(Oc3ccccc3)cc2CN1[C@@H](CCC(=O)N(Cc1ccncc1)C1CCCCC1)C1CCCCC1` [Compound 79] the same measures were 88% and 150 nM.
Turning to `NC1=Nc2cnc(Oc3ccccc3)cc2CN1[C@@H](CCC(=O)N(Cc1nnc[nH]1)C1CCCCC1)C1CCCCC1` [Compound 80, 4-(2-Amino-6-phenoxy-4H-pyrido[3,4-d]pyrimidin-3-yl)-4-(S),N-dicyclohexyl-N-(4H-[1,2,4]triazol-3-ylmethyl)-butyramide], the inhibition at 0.3 µM amounted to 97% and the IC50 was 170 nM.
Consider `Cn1ccnc1CN(C(=O)CC[C@@H](C1CCCCC1)N1Cc2cc(Oc3ccccc3)ncc2N=C1N)C1CCCCC1` [Compound 83], for which the inhibition at 1 µM was determined as 99% and the IC50 was 90 nM.
On to `NC1=Nc2cnc(Oc3ccccc3)cc2CN1[C@@H](CCC(=O)N(CC(=O)O)C1CCCCC1)C1CCCCC1` [Compound 84, {[4-(2-Amino-6-phenoxy-4H-pyrido[3,4-d]pyrimidin-3-yl)-4-(S)-cyclohexyl-butyryl]cyclohexyl-amino}-acetic acid], for which the inhibition at 0.3 µM stood at 100% and the IC50 came to 100 nM.
For `CC(C)[C@H](CCC(=O)N(CC(=O)O)C1CCCCC1)N1Cc2cc(Oc3ccccc3)ncc2N=C1N` [Compound 86] the same measures were 99% and 120 nM.
Consider `COC(=O)[C@@H](COC(C)(C)C)NC(=O)CC[C@@H](C(C)C)N1Cc2cc(Oc3ccccc3)ncc2N=C1N` [Compound 87], for which the inhibition at 0.3 µM was found to be 84% and the IC50 was determined as 96 nM.
For `CC(C)[C@H](CCC(=O)N[C@H](COC(C)(C)C)C(=O)O)N1Cc2cc(Oc3ccccc3)ncc2N=C1N` [Compound 88] the same measures were 98% and 100 nM.
For `NC1=Nc2cnc(Oc3ccccc3)cc2CN1[C@@H](CCC(=O)N1CCCC[C@H]1C(=O)O)C1CCCCC1` [Compound 91] the same measures were 70% and 340 nM.
In the case of `NC1=Nc2cnc(Oc3ccccc3)cc2CN1[C@@H](CCC(=O)N1CCCC[C@H]1CC(=O)O)C1CCCCC1` [Compound 93], the inhibition at 0.3 µM was determined as 94% and the IC50 was 110 nM.
Turning to `CC(C)[C@H](CCC(=O)N[C@@H](COC(C)(C)C)c1nnnn1Cc1ccccc1)N1Cc2cc(Oc3ccccc3)ncc2N=C1N` [Compound 95], the inhibition at 0.3 µM was 86% and the IC50 turned out to be 210 nM.
For `CC(C)[C@H](CCC(=O)N[C@@H](COC(C)(C)C)c1nnn[nH]1)N1Cc2cc(Oc3ccccc3)ncc2N=C1N` [Compound 97, 4-(2-Amino-6-phenoxy-4H-pyrido[3,4-d]pyrimidin-3-yl)-5-methyl-(S)-hexanoic acid [2-(R)-tert-butoxy-1-(1H-tetrazol-5-yl)-ethyl]-amide] the same measures were 96% and 110 nM.
Consider `CC(C)[C@H](CCC(=O)N[C@H](COC(C)(C)C)C(=O)N1CCCCC1)N1Cc2cc(Oc3ccccc3)ncc2N=C1N` [Compound 98], for which the inhibition at 0.3 µM was found to be 72% and the concentration for half-maximal inhibition (IC50) is 150 nM.
For `CC(C)(C)OC[C@@H](NC(=O)CC[C@@H](C1CCCCC1)N1Cc2cc(Oc3ccccc3)ncc2N=C1N)C(=O)N1CCCCC1` [Compound 100] the same measures were 93% and 110 nM.
For `CC(C)[C@H](CCC(=O)N[C@@H](COC(C)(C)C)CN1CCCCC1)N1Cc2cc(Oc3ccccc3)ncc2N=C1N` [Compound 101], the inhibition at 0.3 µM came out at 43% and the IC50 came to 320 nM.
Take `CC(C)(C)OC[C@H](CN1CCOCC1)NC(=O)CC[C@@H](C1CCCCC1)N1Cc2cc(Oc3ccccc3)ncc2N=C1N` [Compound 102, 4-(2-Amino-6-phenoxy-4H-pyrido[3,4-d]pyrimidin-3-yl)-N-(2-(R)-tert-butoxy-1-morpholin-4-ylmethyl-ethyl)-4-(S)-cyclohexyl-butyramide]: the inhibition at 0.3 µM was 55% and the IC50 turned out to be 460 nM.
On to `CC(C)(C)OC[C@@H](NC(=O)CC[C@@H](C1CCCCC1)N1Cc2cc(Oc3ccccc3)ncc2N=C1N)C(=O)N1CCOCC1` [Compound 103, 4-(2-Amino-6-phenoxy-4H-pyrido[3,4-d]pyrimidin-3-yl)-N-(1-(R)-tert-butoxymethyl-2-morpholin-4-yl-2-oxo-ethyl)-4-(S)-cyclohexyl-butyramide], for which the inhibition at 0.3 µM is 96% and the IC50 was 82 nM.
As to `CC(C)(C)OC[C@H](CO)NC(=O)CC[C@@H](C1CCCCC1)N1Cc2cc(Oc3ccccc3)ccc2N=C1N` [Compound 107, 4-(2-Amino-6-phenoxy-4H-quinazolin-3-yl)-N-(1-(S)-tert-butoxymethyl-2-hydroxy-ethyl)-4-(S)-cyclohexyl-butyramide], the inhibition at 0.3 µM turned out to be 87%.
In the case of `C[C@@H](CO)NC(=O)[C@@H](COC(C)(C)C)NC(=O)CC[C@@H](C1CCCCC1)N1Cc2cc(Oc3ccccc3)ncc2N=C1N` [Compound 108], the inhibition at 0.3 µM was determined as 94% and the IC50 stood at 140 nM.
For `CC(CO)NC(=O)C(COC(C)(C)C)NC(=O)CCC(C1CCCCC1)N1Cc2cc(Oc3ccccc3)ncc2N=C1N` (stereo not shown) [Compound 109] the same measures were 95% and 120 nM.
In the case of `Cc1nc([C@H](COC(C)(C)C)NC(=O)CC[C@@H](C2CCCCC2)N2Cc3cc(Oc4ccccc4)ncc3N=C2N)no1` [Compound 110], the inhibition at 1 µM stood at 90% and the IC50 was 62 nM.

What is called inhibition is the relative decrease from the control value, in per cent. For orientation: IC50 means the concentration at which inhibition is half-maximal.
